# Assay results published in patent US10265299B2, “Composition for promoting hair growth and/or hair restoration containing psoralidin” (Amorepacific Corporation, priority 2015, dated 2019).
# Legend:
# NIH3T3 (WNT) cells = test: Measurement of hair follicle stem cell activity (WNT/β-catenin luciferase assay); assay type: cell-based; details: psoralidin 0, 0.01, 0.1, 1, 10 μM for 24 hours; ONE-Glo reagent
# Method: NIH3T3 (WNT) cells, which are hair follicle stem cells, were seeded in a 96 well plates (Nunc, Wiesbaden, Germany) at a density of 10000 cells/well and cultured for 24 hours (5% CO2, 37° C.). Then, psoralidin was treated at varying concentrations (0, 0.01, 0.1, 1, 10 μM) for 24 hours. 100 μl of ONE-Glo reagent (Promega, Madison, Wis., USA) was added to each well of the 96-well plate and reacted for 3 minutes . After the reaction, the activity of stem eel Is was measured with a luminometer Victor (PerkinElmer, Waltham, Mass., USA).
# hair follicle = test: Culture of hair follicle organ and observation of hair follicle cycle; assay type: cell-based; details: psoralidin 1, 10 μM vs samples without psoralidin treatment; human hair follicle organ culture
# Method: For the experiment, a hair transplant was performed to a person with a symptom of partial hair loss. Hair follicle samples of 4 groups each having 15 hair follicles were prepared with remaining follicle samples. William's E medium (Gibco, NY, USA) ) including 500 μl culture medium (2 mM L-glutamine (PAA, Coelbe, Germany), 10 μg/ml insulin, 10 ng/ml hydrocortisone (Sigma, St Louis, Mo.), 0.1% Fungizone (Gibco, NY, USA), 10 μg/ml streptomycin, and 100 U/ml penicillin (Gibco, NY, USA) was dispensed into a 24 well plate (Nunc, Wiesbaden, Germany). Then, the cells were cultured at a density of 5 to 6 cells per well on 500 ul of William's E medium (Gibco, NY, USA).
# The cultured cell samples were treated with psoralidin at varying concentrations (0, 1, 10 μM). A sample not treated with psoralidin was used as a control and the medium was changed every 2 to 3 days. After the treatment with psoralidin, the hair follicle was photographed using a stereomicroscope (Dongwon CNS, Korea), and the life cycle of Image hair follicle was classified and schematized.
# [1] = tested on: CRH (Corticotropin-releasing hormone) and corticosterone; details: fed to animals; cited from earlier work
# protein kinase Akt = details: cited from earlier work
# [2] = tested on: androgen-independent prostate cancer cells; details: in vitro and in vivo; cited from earlier work
smiles,measurement,setting,value
CC(C)=CCc1cc2c(cc1O)oc(=O)c1c3ccc(O)cc3oc21 [psoralidin],"activity of hair follicle stem cells (luminescence, WNT/β-catenin luciferase)",NIH3T3 (WNT) cells,activated
same,speed of the progression to the catagen stage,hair follicle,significantly delayed
same,time remaining in the anagen stage of the hair follicle cycle,hair follicle,remained longer in the anagen stage
same,levels of stress hormones CRH and corticosterone,[1],lower the levels of hormones of CRH (Corticotropin-releasing hormone) and corticosterone
same,phosphorylation of protein kinase Akt,protein kinase Akt,inhibits the phosphorylation of protein kinase Akt
same,growth of androgen-independent prostate cancer cells,[2],inhibiting the growth of androgen-independent prostate cancer cells both in vitro and in vivo
